Source: patent publication EP3677259A1, “USE OF ARACHIDONYL TRIFLUOROMETHYL KETONE” (Mosaiques Diagnostics And Therapeutics AG, priority 2019, dated 2020)
Read-outs that look alike come from different tables or passages of the source.

Tests used:
GV sPLA2 = target: T1, GV sPLA2 (Homo sapiens, UniProt P39877); conditions: cited from earlier work
T1 sequence (P39877 21-138): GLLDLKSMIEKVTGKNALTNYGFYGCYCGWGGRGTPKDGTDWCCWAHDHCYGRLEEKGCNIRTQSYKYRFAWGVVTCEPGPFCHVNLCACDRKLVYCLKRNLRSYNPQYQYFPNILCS

GVIA iPLA2 = target: T2, GVIA iPLA2 (Homo sapiens, UniProt O60733); conditions: cited from earlier work
T2 sequence (O60733 1-806): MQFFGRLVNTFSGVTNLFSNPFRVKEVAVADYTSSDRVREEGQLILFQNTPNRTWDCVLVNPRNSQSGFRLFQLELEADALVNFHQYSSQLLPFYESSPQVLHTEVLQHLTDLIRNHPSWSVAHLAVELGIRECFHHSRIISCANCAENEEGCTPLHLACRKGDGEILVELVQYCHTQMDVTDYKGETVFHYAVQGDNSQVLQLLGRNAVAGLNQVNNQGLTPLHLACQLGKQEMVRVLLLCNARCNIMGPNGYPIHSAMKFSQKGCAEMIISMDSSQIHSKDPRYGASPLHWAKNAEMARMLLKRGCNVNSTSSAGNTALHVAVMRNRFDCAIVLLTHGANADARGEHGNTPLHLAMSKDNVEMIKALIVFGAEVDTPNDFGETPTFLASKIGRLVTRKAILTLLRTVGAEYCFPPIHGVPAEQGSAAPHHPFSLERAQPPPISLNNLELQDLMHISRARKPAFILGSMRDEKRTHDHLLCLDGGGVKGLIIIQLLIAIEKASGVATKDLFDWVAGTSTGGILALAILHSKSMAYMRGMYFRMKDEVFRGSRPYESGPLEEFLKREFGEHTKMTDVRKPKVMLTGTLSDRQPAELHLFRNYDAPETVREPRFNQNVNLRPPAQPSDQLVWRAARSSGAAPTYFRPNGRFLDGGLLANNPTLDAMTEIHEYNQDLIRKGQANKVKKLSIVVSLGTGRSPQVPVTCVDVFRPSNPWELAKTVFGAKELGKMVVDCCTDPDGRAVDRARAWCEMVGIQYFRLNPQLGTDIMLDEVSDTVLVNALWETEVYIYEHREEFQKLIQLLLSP

GIVA cPLA2 = target: T3, GIVA cPLA2 (Homo sapiens, UniProt P47712); conditions: cited from earlier work
T3 sequence (P47712 1-749): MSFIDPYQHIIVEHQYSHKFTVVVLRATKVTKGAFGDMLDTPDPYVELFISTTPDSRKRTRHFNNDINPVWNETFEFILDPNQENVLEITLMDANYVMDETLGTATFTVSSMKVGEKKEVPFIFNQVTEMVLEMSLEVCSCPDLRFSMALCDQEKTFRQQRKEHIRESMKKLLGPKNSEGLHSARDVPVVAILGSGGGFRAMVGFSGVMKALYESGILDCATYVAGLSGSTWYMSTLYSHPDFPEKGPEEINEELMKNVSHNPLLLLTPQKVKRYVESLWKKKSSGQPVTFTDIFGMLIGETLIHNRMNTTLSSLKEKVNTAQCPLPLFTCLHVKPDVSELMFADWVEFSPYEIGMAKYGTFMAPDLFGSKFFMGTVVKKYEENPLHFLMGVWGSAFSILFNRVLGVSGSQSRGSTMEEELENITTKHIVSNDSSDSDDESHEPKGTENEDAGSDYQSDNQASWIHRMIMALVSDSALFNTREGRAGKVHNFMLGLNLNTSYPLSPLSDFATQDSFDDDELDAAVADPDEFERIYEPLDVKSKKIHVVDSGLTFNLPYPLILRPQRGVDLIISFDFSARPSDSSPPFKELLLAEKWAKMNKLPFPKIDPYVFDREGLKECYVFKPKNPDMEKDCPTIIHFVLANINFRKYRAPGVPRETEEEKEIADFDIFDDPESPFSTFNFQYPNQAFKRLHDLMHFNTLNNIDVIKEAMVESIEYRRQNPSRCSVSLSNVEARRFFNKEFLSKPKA

HAoSMCs = test: Relative mRNA expression of osteogenic markers MSX2, CBFA1, ALPL in HAoSMCs; assay type: cell-based, human; conditions: 10 µM arachidonic acid, 24 hours, vs. control
Protocol: Primary HAoSMCs were cultured in Waymouth's MB 752/1 medium and Ham's F-12 nutrient mixture (1:1, Gibco, Life Technologies) supplemented with 10% FBS (Gibco, Life Technologies) and 100 U/ml penicillin and 100 μg/ml streptomycin. HAoSMCs were grown to confluency and used in all experiments from passages 4 to 10. Calcification was induced with 3 mM sodium phosphate buffer as calcification medium. Treatment was performed over a period of 11 days. Figs. 1C-E are diagrams indicating relative mRNA expression in HAoSMCs of MSX2 (Fig. 1C), CBFA1 (Fig. 1D) and ALPL (Fig. 1E) as scatter dot plots and as arithmetic means ± SEM (n=6; arbitrary units, a.u.). mRNA expression was determined following treatment of the HAoSMCs for 24 hours with control or with 2 mM β-glycerophosphate (Pi) without or with additional treatment with 10 μM AACOCF3. **(p<0.01), ***(p<0.001) statistically significant vs. control treated […]<0.001) statistically significant vs. HAoSMCs treated with Pi alone. […] Conditions were as above (for Fig 2), namely primary HAoSMCs were cultured in Waymouth's MB 752/1 medium and Ham's F-12 nutrient mixture (1:1, Gibco, Life Technologies) supplemented with 10% FBS (Gibco, Life Technologies) and 100 U/ml penicillin and 100 μg/ml streptomycin. HAoSMCs were grown to confluency and used in all experiments from passages 4 to 10. […]

human platelets = conditions: read-out: IC50, arachidonic acid mobilization, cited from earlier work
[1] = test system: Ca2+-independent group VI iPLA2; conditions: cited from earlier work

## CCCCCCCCCCCCCCC(=O)C(=O)O [12e]
GV sPLA2
  GV sPLA2 % Inhibition: <25%
GVIA iPLA2
  GVIA iPLA2 % Inhibition: <25%

## CC(C)(C)OC(=O)CCCOC(=O)C(=O)CCCCc1ccccc1 [16c]
GV sPLA2
  GV sPLA2 % Inhibition: <25%
GVIA iPLA2
  GVIA iPLA2 % Inhibition: <25%
GIVA cPLA2
  GIVA cPLA2 % Inhibition: <25%

## O=C(O)CCCOC(=O)C(=O)CCCCc1ccc(-c2ccccc2)cc1 [17d]
GV sPLA2
  GV sPLA2 % Inhibition: <25%
GVIA iPLA2
  GVIA iPLA2 % Inhibition: <25%
GIVA cPLA2
  GIVA cPLA2 % Inhibition: >95%
  GIVA cPLA2 X1(50): 0.00068 ± 0.00007

## O=C(O)CCCCOC(=O)C(=O)CCCCc1ccc(-c2ccccc2)cc1 [17f]
GV sPLA2
  GV sPLA2 % Inhibition: <25%
GIVA cPLA2
  GIVA cPLA2 % Inhibition: > 95%
  GIVA cPLA2 X1(50): 0.000078 ± 0.00001

## O=C(O)CCCOC(=O)C(=O)CCCc1ccc(-c2ccccc2)cc1 [17g]
GV sPLA2
  GV sPLA2 % Inhibition: <25%
GIVA cPLA2
  GIVA cPLA2 % Inhibition: > 95%
  GIVA cPLA2 X1(50): 0.0065 ± 0.002

## CCCCC/C=C\C/C=C\C/C=C\C/C=C\CCCC(=O)O [Arachidonic acid, arachidonic acid]
HAoSMCs
  osteoinductive signaling (MSX2, CBFA1, ALPL relative mRNA expression): induces osteoinductive signaling

## CCCCCCCCCCOc1ccc(OCC(=O)Cn2cc(C(=O)OC)c3cc(C(=O)O)ccc32)cc1 [CAY10502, 1-[3-(4-decoxyphenoxy)-2-oxopropyl]-3-methoxycarbonylindole-5-carboxylic acid]
Human platelets; A23187-stimulated human platelets
  IC50: 0.57 µM
Human platelets; TPA-stimulated human platelets
  IC50: 0.0009 µM

## CCOC(=O)CCCOC(=O)C(=O)CCCCc1ccccc1 [compound 19]
GV sPLA2
  GV sPLA2 % Inhibition: <25%
GVIA iPLA2
  GVIA iPLA2 % Inhibition: <25%

## CCCCCCCCCCCCCCC(O)C(=O)OCCCC(=O)O (centres unmarked) [compound 20]
GVIA iPLA2
  GVIA iPLA2 % Inhibition: <25%
GIVA cPLA2
  GIVA cPLA2 % Inhibition: <25%

## Palmityl trifluoromethylketone [PACOCF3]
[1]
  IC50: 3.8 µM
